Reference: patent US20220282217A1, “COMPOSITIONS AND METHODS FOR PREPARING T CELL COMPOSITIONS AND USES THEREOF” (priority 2019, published 2022)
Read-outs that look alike come from different tables or passages of the source. Where a SMILES comes first, the peptide text is derived from it.

Columns and labels:
HLA-A02.01 [1] = target: HLA-A02.01 (Homo sapiens, UniProt P04439, D140Y/D185E/D98H/E176V/E277Q/G131W/G231S/I119V/I121R/I166T/I218V/L300P/L318F/N151K/N90K/P208A/P217A/Q86G/Q94H/R138H/R169H/T345S); assay: Class I MHC peptide binding affinity (displacement of radiolabeled reference peptide)
In short: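 Radiolabeled reference peptide/MHCI complexes; test peptide titration, 2 d incubation; bound label remaining read by size-exclusion gel filtration.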

HLA-A02.01 [2] = target: T1, HLA-A02.01 (Homo sapiens, UniProt P04439, D140Y/D185E/D98H/E176V/E277Q/G131W/G231S/I119V/I121R/I166T/I218V/N151K/N90K/P208A/P217A/Q86G/Q94H/R138H/R169H); assay: Class I MHC peptide binding stability (pMHC-I dissociation, 125I-labeled light chain); settings: for Stability (T1/2 (h)): allele A02.01; for Measured stability: HLA Allele A02.01, time for half of the complexes to dissociate at 37° C.
T1 construct: made in house; host or cells: E. coli

[3] = allele A02.01, read-out: Observed Affinity (IC50, (nM))
[4] = Measured Affinity (nM), HLA Allele A02.01
[5] = Observed Affinity (IC50, (nM)), allele A02.01

IC50 (HLA-A02.01 [1]; [3]) | Stability (T1/2 (h)) (HLA-A02.01 [2]) | Compound | also measured
31 nM | 9.8 h | CSCC[C@H](NC(=O)[C@@H](N)CO)C(=O)N[C@@H](CC(C)C)C(=O)N[C@H](C(=O)N[C@@H](CC(=O)O)C(=O)N[C@@H](CO)C(=O)N[C@@H](CC(C)C)C(=O)N[C@@H](Cc1ccccc1)C(=O)N[C@@H](CC(C)C)C(=O)O)[C@@H](C)O (H-SMLTDSLFL-OH; N-terminus and C-terminus assumed) | 
640 nM | 0.7 h | CSCC[C@H](NC(=O)[C@H](CCC(=O)O)NC(=O)[C@H](CC(C)C)NC(=O)[C@H](CC(C)C)NC(=O)[C@H](CC(C)C)NC(=O)CNC(=O)[C@H](Cc1ccc(O)cc1)NC(=O)[C@H](CC(C)C)NC(=O)[C@@H]1CCCN1)C(=O)O (H-PLYGLLLEM-OH; N-terminus and C-terminus assumed) | 
3 nM | 6.8 h | CC[C@H](C)[C@H](NC(=O)[C@H](Cc1ccc(O)cc1)NC(=O)[C@H](CCC(=O)O)NC(=O)CNC(=O)[C@H](CO)NC(=O)[C@@H](N)Cc1ccccc1)C(=O)N1CCC[C@H]1C(=O)N[C@H](C(=O)N[C@H](C(=O)O)C(C)C)[C@@H](C)O (H-FSGEYIPTV-OH; N-terminus and C-terminus assumed) | 
68 nM | 12.8 h | CC(C)C[C@H](NC(=O)[C@@H](N)CC(C)C)C(=O)N[C@@H](C)C(=O)N[C@@H](Cc1ccccc1)C(=O)N[C@@H](Cc1c[nH]c2ccccc12)C(=O)N[C@@H](CC(=O)O)C(=O)N[C@@H](CO)C(=O)N[C@@H](CCC(N)=O)C(=O)N[C@H](C(=O)O)C(C)C (H-LLAFWDSQV-OH; N-terminus and C-terminus assumed) | 
1760 nM | 6.6 h | CC(C)C[C@H](NC(=O)[C@@H](NC(=O)[C@H](CC(=O)O)NC(=O)[C@H](CC(C)C)NC(=O)[C@@H](NC(=O)[C@@H](N)Cc1ccc(O)cc1)[C@@H](C)O)C(C)C)C(=O)N[C@@H](CCC(=O)O)C(=O)N[C@@H](CCCNC(=N)N)C(=O)N[C@@H](CS)C(=O)O | 
558 nM | 0.4 h | CSCC[C@H](NC(=O)[C@H](CCC(=O)O)NC(=O)[C@H](CC(C)C)NC(=O)[C@H](CC(C)C)NC(=O)[C@H](CC(C)C)NC(=O)CN)C(=O)N[C@@H](CC(C)C)C(=O)N[C@@H](CC(=O)O)C(=O)N[C@@H](C)C(=O)O (H-GLLLEMLDA-OH; N-terminus and C-terminus assumed) | 
2010 nM | 0.9 h | CSCC[C@H](NC(=O)[C@H](CCC(=O)O)NC(=O)[C@H](CC(C)C)NC(=O)[C@H](CC(C)C)NC(=O)[C@H](CC(C)C)NC(=O)[C@H](CC(=O)O)NC(=O)[C@H](CS)NC(=O)[C@H](CC(C)C)NC(=O)[C@@H]1CCCN1)C(=O)N[C@@H](CC(C)C)C(=O)O (H-PLCDLLLEML-OH; N-terminus and C-terminus assumed) | 
219 nM | 24 h | CC(C)C[C@H](NC(=O)[C@H](CC(C)C)NC(=O)[C@@H](NC(=O)[C@H](CC(=O)O)NC(=O)[C@H](C)NC(=O)[C@H](CC(C)C)NC(=O)[C@@H](N)CS)C(C)C)C(=O)N[C@@H](CO)C(=O)N[C@H](C(=O)O)C(C)C (H-CLADVLLSV-OH; N-terminus and C-terminus assumed) | 
311 nM | 8.9 h | CSCC[C@H](NC(=O)[C@H](CC(C)C)NC(=O)[C@H](CCC(=O)O)NC(=O)[C@H](CCSC)NC(=O)[C@@H](N)CC(C)C)C(=O)N[C@@H](C)C(=O)NCC(=O)NCC(=O)N[C@@H](CC(=O)O)C(=O)N[C@@H](CC(C)C)C(=O)O (H-LMELMAGGDL-OH; N-terminus and C-terminus assumed) | 
7770 nM | 0.5 h | CC(C)C[C@H](NC(=O)[C@H](CO)NC(=O)[C@H](CC(N)=O)NC(=O)[C@H](CS)NC(=O)[C@H](CCC(=O)O)NC(=O)[C@H](Cc1c[nH]cn1)NC(=O)[C@H](CC(C)C)NC(=O)[C@@H](NC(=O)[C@@H](N)CCC(N)=O)C(C)C)C(=O)O | 
177 nM | 0.4 h | CC[C@H](C)[C@H](NC(=O)[C@@H](N)CC(C)C)C(=O)N[C@@H](CCSC)C(=O)N[C@@H](CCC(N)=O)C(=O)N[C@@H](CC(C)C)C(=O)N[C@@H](CCSC)C(=O)N1CCC[C@H]1C(=O)N[C@@H](Cc1ccccc1)C(=O)NCC(=O)N[C@@H](CS)C(=O)O | Kd (HLA-A02.01 [1]; EGFR T790M peptides, HLA allele A02.01, read-out: Affinity): 132 nM; Stability (half-life (hr.)) (HLA-A02.01 [2]; EGFR T790M peptides, HLA allele A02.01): 0.3813 h
 | 6.4 h | CSCC[C@H](NC(=O)[C@H](CCC(N)=O)NC(=O)[C@H](CC(C)C)NC(=O)[C@@H](NC(=O)[C@@H](N)CCCCN)C(C)C)C(=O)N[C@@H](CC(=O)O)C(=O)N[C@@H](Cc1ccccc1)C(=O)N[C@@H](CC(C)C)C(=O)N[C@H](C(=O)O)C(C)C (H-KVLQMDFLV-OH; N-terminus and C-terminus assumed) | 
 | 4 h | CC(C)C[C@H](NC(=O)[C@H](CO)NC(=O)[C@H](CS)NC(=O)[C@H](CCC(=O)O)NC(=O)[C@H](Cc1c[nH]c2ccccc12)NC(=O)[C@H](CC(C)C)NC(=O)[C@H](C)NC(=O)[C@H](CC(C)C)NC(=O)[C@@H](N)CC(C)C)C(=O)O | 

The remaining lines, values behind:

Compound | IC50 (HLA-A02.01 [1]; [3]) | Stability (T1/2 (h)) (HLA-A02.01 [2]) | also measured
CC(C)C[C@H](N)C(=O)N[C@H](C(=O)N[C@H](C(=O)N[C@H](C(=O)NCC(=O)N[C@@H](C)C(=O)N[C@@H](CS)C(=O)NCC(=O)N[C@H](C(=O)O)C(C)C)C(C)C)C(C)C)C(C)C (H-LVVVGACGV-OH; N-terminus and C-terminus assumed) |  | 0.6 h | IC50 (HLA-A02.01 [1]; [4]): 667 nM; IC50 (HLA-A02.01 [1]; [5]): 1210 nM; Measured stability (HLA-A02.01 [2]): 0.6 h
CC(C)C[C@H](NC(=O)[C@@H](N)CCCCN)C(=O)NCC(=O)NCC(=O)NCC(=O)N[C@@H](CCC(N)=O)C(=O)N[C@@H](Cc1c[nH]cn1)C(=O)NCC(=O)N[C@@H](CCC(=O)O)C(=O)N[C@H](C(=O)O)C(C)C (H-KLGGGQHGEV-OH; N-terminus and C-terminus assumed) |  | 0.4 h | IC50 (HLA-A02.01 [1]; [5]): 387 nM
CC[C@H](C)[C@H](NC(=O)[C@H](CC(N)=O)NC(=O)[C@@H](N)CCSC)C(=O)N[C@@H](C)C(=O)N[C@@H](CC(N)=O)C(=O)N[C@@H](CC(C)C)C(=O)N[C@@H](CC(C)C)C(=O)NCC(=O)N[C@@H](C)C(=O)O (H-MNIANLLGA-OH; N-terminus and C-terminus assumed) |  | 0.3 h | IC50 (HLA-A02.01 [1]; [5]): 128 nM
CC(C)[C@H](NC(=O)[C@H](CO)NC(=O)[C@H](Cc1ccccc1)NC(=O)[C@H](Cc1ccccc1)NC(=O)[C@H](Cc1ccccc1)NC(=O)[C@H](Cc1ccccc1)NC(=O)[C@H](CS)NC(=O)[C@@H](NC(=O)[C@@H](N)CO)C(C)C)C(=O)O | 175 nM | 9.4 h | 
CC[C@H](C)[C@H](NC(=O)[C@H](Cc1ccc(O)cc1)NC(=O)[C@H](CC(C)C)NC(=O)[C@@H](N)CO)C(=O)N[C@H](C(=O)NCC(=O)N[C@@H](Cc1ccccc1)C(=O)N[C@@H](Cc1ccc(O)cc1)C(=O)NCC(=O)N[C@@H](C)C(=O)O)C(C)C (H-SLYIVGFYGA-OH; N-terminus and C-terminus assumed) | 390 nM | 0.4 h | 
CC(C)C[C@H](NC(=O)[C@@H](N)CCCCN)C(=O)N[C@H](C(=O)N[C@H](C(=O)N[C@H](C(=O)NCC(=O)N[C@@H](C)C(=O)N[C@@H](CC(=O)O)C(=O)NCC(=O)N[C@H](C(=O)O)C(C)C)C(C)C)C(C)C)C(C)C |  | 0.9 h | Measured stability (HLA-A02.01 [2]): 0.9 h
CC(C)C[C@H](N)C(=O)N[C@H](C(=O)N[C@H](C(=O)N[C@H](C(=O)NCC(=O)N[C@@H](C)C(=O)N[C@@H](CC(=O)O)C(=O)NCC(=O)N[C@H](C(=O)O)C(C)C)C(C)C)C(C)C)C(C)C (H-LVVVGADGV-OH; N-terminus and C-terminus assumed) |  |  | IC50 (HLA-A02.01 [1]; [4]): 977 nM; IC50 (HLA-A02.01 [1]; [5]): 1190 nM; Measured stability (HLA-A02.01 [2]): 0.0 h
CC(C)C[C@H](NC(=O)[C@H](C)N)C(=O)N[C@@H](CO)C(=O)N[C@@H](CCC(=O)O)C(=O)N[C@@H](Cc1c[nH]cn1)C(=O)N[C@@H](CS)C(=O)N1CCC[C@H]1C(=O)N[C@H](C(=O)N[C@H](C(=O)O)[C@@H](C)O)[C@@H](C)O (H-ALSEHCPTT-OH; N-terminus and C-terminus assumed) | 79 nM | 27.3 h | 
CSCC[C@H](NC(=O)[C@@H](NC(=O)[C@H](Cc1ccc(O)cc1)NC(=O)[C@H](C)NC(=O)[C@H](CCSC)NC(=O)[C@@H](NC(=O)[C@@H](N)Cc1ccc(O)cc1)C(C)C)C(C)C)C(=O)N[C@@H](C)C(=O)NCC(=O)N[C@H](C(=O)O)C(C)C | 57 nM | 20.9 h | 
CC[C@H](C)[C@H](NC(=O)[C@@H](N)C(C)C)C(=O)N[C@H](C(=O)N[C@@H](CCC(=O)O)C(=O)N[C@@H](Cc1ccc(O)cc1)C(=O)N[C@@H](CS)C(=O)N[C@@H](CS)C(=O)N[C@@H](Cc1ccc(O)cc1)C(=O)NCC(=O)O)[C@@H](C)CC (H-VIIEYCCYG-OH; N-terminus and C-terminus assumed) |  | 0.5 h | 
CC[C@H](C)[C@H](N)C(=O)N[C@H](C(=O)N[C@H](C(=O)N[C@@H](CCC(=O)O)C(=O)N[C@@H](Cc1ccc(O)cc1)C(=O)N[C@@H](CS)C(=O)N[C@@H](Cc1ccccc1)C(=O)N[C@@H](Cc1ccc(O)cc1)C(=O)NCC(=O)O)[C@@H](C)CC)[C@@H](C)CC (H-IIIEYCFYG-OH; N-terminus and C-terminus assumed) |  | 1.2 h | 
CC(C)C[C@H](NC(=O)[C@H](CO)NC(=O)[C@H](CS)NC(=O)[C@H](CCC(=O)O)NC(=O)[C@H](Cc1c[nH]c2ccccc12)NC(=O)[C@H](CC(C)C)NC(=O)[C@H](C)NC(=O)[C@H](CC(C)C)NC(=O)[C@H](CC(C)C)NC(=O)[C@@H](N)Cc1ccccc1)C(=O)O |  | 10.8 h | 
